Like-named read-outs stand apart in the source and are kept apart here. Residues, ends and D or L forms follow the SMILES beside them. No end group written: not given here.
Columns and labels:
ACE = test system: ACE; design: method as in 14 sources, ref [13, 14] = [13]; PMID 16218651; doi:10.1021/jf0508908; 13. Vercruysse L. Van Camp J. Smagghe G. ACE inhibitory peptides derived from enzymatic hydrolysates of animal muscle protein: A review J. Agric. Food Chem. 2005 53 8106 8115 10.1021/jf0508908 1621865 || [14]; PMID 22061507; doi:10.1016/S0309-1740(00)00108-X; 14. Arihara K. Nakashima Y. Mukai T. Ishikawa S. Itoh M. Peptide inhibitors for angiotensin I-converting enzyme from enzymatic hydrolysates of porcine skeletal muscle proteins Meat Sci. 2001 57 319 32 ||| ref [13, 15] = [13]; PMID 16218651; doi:10.1021/jf0508908; 13. Vercruysse L. Van Camp J. Smagghe G. ACE inhibitory peptides derived from enzymatic hydrolysates of animal muscle protein: A review J. Agric. Food Chem. 2005 53 8106 8115 10.1021/jf0508908 1621865 || [15]; doi:10.1046/j.1344-3941.2003.00086.x; 15. Katayama K. Tomatsu M. Fuchu H. Sugiyama M. Kawahara S. Yamauchi K. Kawamura Y. Muguruma M. Purification and characterization of an angiotensin I-converting enzyme inhibitory peptide derived from ||| ref [16] = [16]; doi:10.1016/j.foodchem.2008.09.081; 16. Muguruma M. Ahhmed A.M. Katayama K. Kawahara S. Maruyama M. Nakamura T. Identification of pro-drug type ACE inhibitory peptide sourced from porcine myosin B: Evaluation of its antihypertensive eff ||| ref [17] = [17]; PMID 1368684; 17. Miyoshi S. Ishikawa H. Kaneko T. Fukui F. Tanaka H. Maruyama S. Structures and activity of angiotensin-converting enzyme inhibitors in an α-zein hydrolysate Agric. Biol. Chem. 1991 55 1313 1318 13 ||| ref [17, 18] = [17]; PMID 1368684; 17. Miyoshi S. Ishikawa H. Kaneko T. Fukui F. Tanaka H. Maruyama S. Structures and activity of angiotensin-converting enzyme inhibitors in an α-zein hydrolysate Agric. Biol. Chem. 1991 55 1313 1318 13 || [18]; PMID 16448176; doi:10.1021/jf051263l; 18. Wu J. Aluko R.E. Nakai S. Structural requirements of angiotensin i-converting enzyme inhibitory peptides: Quantitative structure−activity relationship study of di- and tripeptides J. Agric. Food C ||| ...; settings: cited from earlier work; for ACE inhibition (in words): fish skin gelatine hydrolysate peptides, ref [26]; for IC50: porcine-derived peptides, literature, read-out: ACE Inhibition IC50
ACE from rabbit lung = biological target: T1, ACE from rabbit lung (Oryctolagus cuniculus, UniProt P12822); assay: ACE-inhibition assay (modified Cushman and Cheung, HHL substrate, HPLC); format: biochemical; settings: 0.5 mM HHL, TRIS pH 8.3, 37 °C 30 min, HPLC-UV 228 nm, calculated from % inhibition at 0.1, 1 (2) mM, this study
T1 construct: ACE from rabbit lung (purchased from Sigma Aldrich 2U equal to 1 mg of protein); purchased Sigma Aldrich; host or cells: rabbit lung
T1 sequence (P12822 34-1310): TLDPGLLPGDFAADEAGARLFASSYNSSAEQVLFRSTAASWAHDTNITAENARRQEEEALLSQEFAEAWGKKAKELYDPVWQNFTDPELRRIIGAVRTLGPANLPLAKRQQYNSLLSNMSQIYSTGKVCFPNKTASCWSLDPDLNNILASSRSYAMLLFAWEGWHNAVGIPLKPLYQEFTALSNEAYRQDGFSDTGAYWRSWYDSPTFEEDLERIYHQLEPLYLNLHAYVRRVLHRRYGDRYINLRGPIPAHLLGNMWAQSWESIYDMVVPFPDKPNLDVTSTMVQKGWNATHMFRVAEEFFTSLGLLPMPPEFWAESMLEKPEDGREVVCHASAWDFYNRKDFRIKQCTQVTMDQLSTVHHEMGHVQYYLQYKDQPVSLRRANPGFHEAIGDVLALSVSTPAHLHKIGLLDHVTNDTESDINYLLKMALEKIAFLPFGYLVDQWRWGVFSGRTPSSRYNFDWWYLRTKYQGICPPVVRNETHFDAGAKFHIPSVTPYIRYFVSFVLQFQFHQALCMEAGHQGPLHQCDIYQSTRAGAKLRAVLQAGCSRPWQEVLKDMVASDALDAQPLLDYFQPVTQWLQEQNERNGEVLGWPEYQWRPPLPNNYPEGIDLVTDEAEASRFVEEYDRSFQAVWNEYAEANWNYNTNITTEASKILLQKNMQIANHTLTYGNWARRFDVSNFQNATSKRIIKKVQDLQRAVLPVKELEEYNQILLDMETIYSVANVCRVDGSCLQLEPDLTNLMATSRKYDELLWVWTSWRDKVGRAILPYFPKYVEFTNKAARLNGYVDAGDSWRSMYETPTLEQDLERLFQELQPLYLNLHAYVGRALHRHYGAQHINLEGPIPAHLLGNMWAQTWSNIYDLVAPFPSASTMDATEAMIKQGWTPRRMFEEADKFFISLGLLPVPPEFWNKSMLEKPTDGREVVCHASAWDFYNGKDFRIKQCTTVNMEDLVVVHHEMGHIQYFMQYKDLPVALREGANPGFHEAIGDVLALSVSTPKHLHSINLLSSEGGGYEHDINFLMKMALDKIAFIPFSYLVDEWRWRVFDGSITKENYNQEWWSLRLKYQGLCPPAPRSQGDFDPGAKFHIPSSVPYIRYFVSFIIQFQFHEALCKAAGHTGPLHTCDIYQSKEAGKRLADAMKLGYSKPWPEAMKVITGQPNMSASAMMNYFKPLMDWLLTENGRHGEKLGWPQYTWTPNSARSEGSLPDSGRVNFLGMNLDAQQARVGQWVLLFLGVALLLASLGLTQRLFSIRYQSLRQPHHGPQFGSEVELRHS
Procedure: ACE from rabbit lung (purchased from Sigma Aldrich 2U equal to 1 mg of protein) was reconstituted in milli-q water (1 mL) to produce the ACE stock solution (1 U/mL, 500 μg/mL of protein). ACE working solution (200 mU/mL, 100 μg/mL of protein) was prepared by diluting the stock solution 1:5. ACE stock solution was stored at −20 °C, and the ACE working solution was prepared when required. […] Milli-q water or experimental sample (40 μL) and 0.5 mM HHL (145 μL) were added to 1.5 mL micro-centrifuge tubes and incubated in a water bath at 37 °C for 3 min; then, 200 mU/mL ACE (15 μL) was added to each tube and the tubes were then incubated in a water bath at 37 °C for 30 min. After 30 min, 1 M HCl (200 μL) was added to the tubes to stop the reaction.
To determine the anti-ACE activity of the analytes, the samples were analysed using HPLC (Beckman Coulter) fitted with an Ascentis® Express Peptide ES-C18, 2.7 μm column. The samples were eluted with an isocratic mobile phase consisting of 50% methanol and 50% water containing trifluoroacetic acid (TFA) (0.2%) at a flow rate of 0.4 mL/min. The substrate and the product were detected using UV at 228 nm. The ability of each peptide to inhibit ACE was measured by comparing the reduction of HA (the product of ACE digested HHL) in relation to the positive control (no inhibitor or peptide present). Inhibition was calculated using Equation (1), as follows:ACE inhibition (%) = (1 − (B ÷ A)) × 100(1) where A is the area of the HA peak in control 1 and B is the area of the HA peak in experimental sample. To assess the anti-ACE activity of the synthetic peptides, samples were prepared by diluting the 10 mM stock synthetic peptide solutions using milli-q water to produce samples at 2 mM, 1 mM, and 0.1 mM.

[1] = Solubility of synthetic peptides in aqueous solution; format: physicochemical; settings: in words; stocks 10 mM in deionised water
Procedure: Based on the in silico activity prediction, four synthetic peptides were ordered from Peptide Synthetics (Protein Peptide Research Ltd., Fareham, UK). They were supplied as 10 mg aliquots of lyophilised powders. The synthetic peptides were dissolved in deionised water to produce 10 mM stock solutions: • FWG: 10 mg/mL = 24.48 mM therefore 10 mM = 4.085 mg/mL • MFLG: 10 mg/mL = 21.43 mM therefore10 mM = 4.666 mg/mL • […]: 10 mg/mL = 10.75 mM therefore 10 mM = 9.302 mg/mL • FFNDA: 10 mg/mL = 16.32 mM or10 mM = 6.127 mg/mL

GIPGAP [peptide from hydrolysates of thornback ray skin]
ACE inhibition (in words) (ACE): most active ACE inhibitor

KAPVA [literature porcine peptide, titin]
IC50 (ACE; ref [20],[24]): 47 µM

VKKVLGNP [literature porcine peptide, myosin (light chain)]
IC50 (ACE; ref [20],[21]): 29 µM

VLAQYK [peptide derived from meat waste]
ACE-inhibitory activity (in words) (ACE; peptide derived from meat waste, ref [7]): greatest ACE-inhibitory activity

SDPPLVFVG
IC50 (ACE from rabbit lung): 1.16 mM
Solubility in aqueous solution [1]: perhaps less soluble

ITTNP [literature porcine peptide, myosin]
IC50 (ACE; ref [13],[14]): 549 µM

KRVITY [literature porcine peptide, myosin]
IC50 (ACE; ref [16]): 6 µM

FFNDA [FFNDA]
IC50 (ACE from rabbit lung): 0.83 mM
Solubility in aqueous solution [1]: perhaps less soluble

RMLGQTP [literature porcine peptide, troponin C]
IC50 (ACE; ref [13],[15]): 503 µM

RMLGQTPTK [literature porcine peptide, troponin C]
IC50 (ACE; ref [13],[15]): 34 µM

MNPPK [literature porcine peptide, myosin]
IC50 (ACE; ref [13],[14]): 946 µM

KRQKYDI [literature porcine peptide, troponin]
IC50 (ACE; ref [17],[20]): 27 µM

CSCC[C@H](N)C(=O)N[C@@H](Cc1ccccc1)C(=O)N[C@@H](CC(C)C)C(=O)NCC(=O)O [MFLG] (H-MFLG-OH)
IC50 (ACE from rabbit lung): 0.07 mM
Solubility in aqueous solution [1]: readily soluble in aqueous solution

PTPVP [literature porcine peptide, titin]
IC50 (ACE; ref [20],[24]): 256 µM

LLMLDNDLPP
ACE inhibition (in words) (ACE): potent non-competitive ACE inhibition

VKAGF [literature porcine peptide, actin]
IC50 (ACE; ref [16]): 20 µM

Source: paper PMC11820866, “Angiotensin-Converting Enzyme (ACE)-Inhibitor Activity of Novel Peptides Derived from Porcine Liver and Placenta” (Molecules, 2025)
